Data: patent publication US6723716B1, “7-acylamino-3-heteroarylthio-3-cephem carboxylic acid antibiotics and prodrugs thereof” (Essential Therapeutics, Inc., priority 1999, dated 2004)
≈ marks a conversion by molar mass, not a printed value.

Columns and labels:
[1] = test system: E. faecium ATCC 35667; assay: Broth microdilution MIC (NCCLS); assay type: cell-based; conditions: Enterococcus faecium, ATCC35667
Procedure: (§1) Compounds were evaluated for antimicrobial activity against a panel of bacterial strains using a broth microdilution assay performed as recommended by the NCCLS (1). The minimum inhibitory concentration (MIC) was defined as the lowest concentration of drug which prevented the growth of the bacteria.
(§2) For this primary panel, the assay was performed in Mueller-Hinton Broth (MHB) with a final bacterial inoculum of 5×10^5 CFU/mL (from an early-log phase culture) and a final volume of 100 μL. Control drugs, including imipenem, vancomycin, Penicillin G, dicloxacillin (vs. MSSA ATCC29213 only), and new compounds were prepared at a concentration equivalent to 2-fold the desired final concentration. Dilution of compounds were prepared directly in the plates by serial 2-fold dilution using a multichannel pipette. Positive and negative growth control were included in each plate.
(§3) The bacterial inocula were prepared as follows. For each strain one isolated colony was used to inoculate a volume of 8 mL of Mueller-Hinton broth and these cultures were incubated overnight (20 h) at 35° C. in a shaking incubator. At the exception of Enterococcus strains, culture were then diluted 1:10 and allowed to grow for an additional one hour at 35° C. in a shaking incubator. The inocula were prepared by diluting the early log-phase (1 h) cultures 1:1000 with fresh Mueller-Hinton broth. E. faecium and E. faecalis were prepared by diluting overnight cultures 1:333 and 1:666, respectively, with fresh Mueller-Hinton broth. A volume of 50 μL of the inocula was added to each well. […] The exact inocula were determined by applying 10 μL of 10-fold serial dilution of the bacterial suspensions on TSA. After overnight incubation at 35° C., colony forming units were manually counted.
(§4) Microtiter plates were incubated during 24 h at 35° C. and were read using a microtiterplate reader (Molecular Devices) at 650 nm as well as by visual observation using a microtiterplate reading mirror.

[2] = test system: P. aeruginosa ATCC 27853; assay: Broth microdilution MIC (NCCLS); assay type: cell-based; conditions: Pseudomonas aeruginosa, ATCC27853
Procedure: as §1, §2, §3, §4

[3] = test system: E. coli ATCC25992; assay: Broth microdilution MIC (NCCLS); assay type: cell-based; conditions: Escherichia coli
Procedure: as §1, §2, §3, §4

[4] = test system: S. aureus PC1 (Meth^S)(lac^+); assay: Broth microdilution MIC (NCCLS); assay type: cell-based; conditions: Staphylococcus aureus
Procedure: as §1, §2, §3, §4

[5] = test system: S. aureus Col (Meth^R)(lac^−); assay: Broth microdilution MIC (NCCLS); assay type: cell-based; conditions: Staphylococcus aureus
Procedure: as §1, §2, §3, §4

[6] = test system: S. aureus ATCC 33593 (Meth^R); assay: Broth microdilution MIC (NCCLS); assay type: cell-based; conditions: Staphylococcus aureus, ATCC33593
Procedure: as §1, §2, §3, §4

[7] = test system: S. haemolyticus 05 (Meth^R); assay: Broth microdilution MIC (NCCLS); assay type: cell-based; conditions: Staphylococcus haemolyticus
Procedure: as §1, §2, §3, §4

[8] = test system: E. faecium VanA (Van^R); assay: Broth microdilution MIC (NCCLS); assay type: cell-based; conditions: Enterococcus faecium
Procedure: as §1, §2, §3, §4

[9] = test system: S. aureus Spain #356 (Meth^R); assay: Broth microdilution MIC (NCCLS); assay type: cell-based; conditions: Staphylococcus aureus, 24 h
Procedure: as §1, §2, §3, §4

[10] = test system: E. faecalis ATCC 29212; assay: Broth microdilution MIC (NCCLS); assay type: cell-based; conditions: Enterococcus faecalis, ATCC29212
Procedure: as §1, §2, §3, §4

[11] = test system: S. aureus ATCC 29213; assay: Broth microdilution MIC (NCCLS); assay type: cell-based; conditions: Staphylococcus aureus, ATCC29213; S. aureus ATCC 29213; Mueller-Hinton broth, 24 h at 35° C.; read-out: MIC
Procedure: as §1, §2, §3, §4

[12] = test system: E. faecalis VanB (Van^R); assay: Broth microdilution MIC (NCCLS); assay type: cell-based; conditions: Enterococcus faecalis
Procedure: as §1, §2, §3, §4

[13] = test system: S. aureus 76 (Meth^R)(lac^+); assay: Broth microdilution MIC (NCCLS); assay type: cell-based; conditions: Staphylococcus aureus
Procedure: as §1, §2, §3, §4

[14] = test system: S. aureus ATCC 13709 (Meth^S); assay: Broth microdilution MIC (NCCLS); assay type: cell-based; conditions: Staphylococcus aureus, ATCC13709, S. aureus ATCC 13709 (Meth^S); read-out: MIC
Procedure: as §1, §2, §3, §4

[15] = test system: E. faecium A491 (Amp^R); assay: Broth microdilution MIC (NCCLS); assay type: cell-based; conditions: Enterococcus faecium
Procedure: as §1, §2, §3, §4

[16] = test system: S. aureus ATCC29213; assay: Human serum binding effect: MIC with and without human serum; assay type: cell-based, Staphylococcus aureus; conditions: 1:1 human serum:MHB
Procedure: The approximate measurement of the degree of binding of the compound to human serum proteins can be achieved by determination of the effect of the addition of human serum to the medium in which the MIC values against a selected bacterial strain is determined. The ratio of the MIC value obtained in presence of added human serum to the MIC value determined without serum addition was used as a measure of serum binding and the results of such determination are presented below in Table 2.
In addition to the standard MIC determination described above, the staphylococcal strain ATCC29213 is also tested in a ratio 1:1, human serum:MHB to obtain a preliminary estimate of the bioactivity of test compounds in serum: The assay was performed in Human Serum and Mueller-Hinton Broth (HSMHB) with a final bacterial inoculum of 1×10^6 CFU/mL (from an early-log phase culture) and a final volume of 100 μL. Control drugs, including imipenem, vancomycin, dicloxacillin, and new compounds were prepared in double-concentrated Mueller-Hinton broth at a concentration equivalent to 4-fold the desired final concentration. Dilution of compounds were prepared directly in the plates by serial 2-fold dilution in double-concentrated Mueller-Hinton using a multichannel pipette. Positive and negative growth controls were included in each plate. […] The inoculum was prepared by diluting the early log-phase (1 h) culture 1:100 with fresh double-concentrated Mueller-Hinton broth. A volume of 25 μL of the inoculum was added to each well. […] The exact inoculum was determined by applying 10 μl of 10-fold serial dilution of the bacterial suspension on TSA. After overnight incubation at 35° C., colony forming units were manually counted.

COc1nc(CSCCN)c(SC2=C(C(=O)O)N3C(=O)[C@@H](NC(=O)/C(=N\O)c4cccc(N)n4)[C@H]3SC2)s1 [Cmpd 5, (7R)-7-[(Z)-2-(2-aminopyrid-6-yl)-2-(hydroxyimino)acetamido]-3-[4-(2-aminoethylthiomethyl)-2-methoxy-1,3-thiazol-5-ylthio]-3-cephem-4-carboxylic acid]
MIC [1]: 4 µg/mL (≈ 6.69 µM)
MIC [2]: > 32 µg/mL
MIC [3]: 32 µg/mL (≈ 53.5 µM)
MIC [4]: 0.25 µg/mL (≈ 0.418 µM)
MIC [5]: 4 µg/mL (≈ 6.69 µM)
MIC [6]: 4 µg/mL (≈ 6.69 µM)
MIC [7]: 8 µg/mL (≈ 13.4 µM)
MIC [8]: 4 µg/mL (≈ 6.69 µM)
MIC [9]: 4 µg/mL (≈ 6.69 µM)
MIC [10]: 0.5 µg/mL (≈ 0.837 µM)
MIC [11]: 0.25 µg/mL (≈ 0.418 µM)
MIC [12]: 1 µg/mL (≈ 1.67 µM)
MIC [13]: 4 µg/mL (≈ 6.69 µM)
MIC [14]: 0.13 µg/mL (≈ 0.217 µM)
MIC [15]: > 32 µg/mL
Human serum binding effect (ratio of MIC value determined with and without human serum added) [16]: 4

NCCSc1nccc(SC2=C(C(=O)O)N3C(=O)[C@@H](NC(=O)/C(=N\O)c4cccc(N)n4)[C@H]3SC2)n1 [Cmpd 8, (7R)-7-[(Z)-2-(2-aminopyrid-6-yl)-2-(hydroxyimino)acetamido]-3-[2-(2-aminoethylthio)-pyrimidin-4-ylthio]-3-cephem-4-carboxylic acid]
MIC [1]: 16 µg/mL (≈ 29.2 µM)
MIC [2]: > 32 µg/mL
MIC [3]: 16 µg/mL (≈ 29.2 µM)
MIC [4]: 1 µg/mL (≈ 1.82 µM)
MIC [5]: 16 µg/mL (≈ 29.2 µM)
MIC [6]: 8 µg/mL (≈ 14.6 µM)
MIC [7]: 32 µg/mL (≈ 58.3 µM)
MIC [8]: 32 µg/mL (≈ 58.3 µM)
MIC [9]: 16 µg/mL (≈ 29.2 µM)
MIC [10]: 8 µg/mL (≈ 14.6 µM)
MIC [11]: 1 µg/mL (≈ 1.82 µM)
MIC [12]: 16 µg/mL (≈ 29.2 µM)
MIC [13]: 16 µg/mL (≈ 29.2 µM)
MIC [14]: 0.5 µg/mL (≈ 0.911 µM)
MIC [15]: > 32 µg/mL
Human serum binding effect (ratio of MIC value determined with and without human serum added) [16]: 128

N=C(N)NCCSCc1nc(N)sc1SC1=C(C(=O)O)N2C(=O)[C@@H](NC(=O)/C(=N\O)c3nc(N)sc3Cl)[C@H]2SC1 [Cmpd 26, (7R)-7-[(Z)-2-(2-amino-5-chlorothiazol-4-yl)-2-(hydroxyimino)acetamido]-3-[4-(2-guanidinoethylthiomethyl)-2-amino-1,3-thiazol-5-ylthio]-3-cephem-4-carboxylic acid]
MIC [1]: 0.5 µg/mL (≈ 0.752 µM)
MIC [2]: 4 µg/mL (≈ 6.01 µM)
MIC [3]: 4 µg/mL (≈ 6.01 µM)
MIC [4]: 0.06 µg/mL (≈ 0.0902 µM)
MIC [5]: 0.25 µg/mL (≈ 0.376 µM)
MIC [6]: 0.5 µg/mL (≈ 0.752 µM)
MIC [7]: 0.5 µg/mL (≈ 0.752 µM)
MIC [8]: 1 µg/mL (≈ 1.5 µM)
MIC [9]: 0.5 µg/mL (≈ 0.752 µM)
MIC [10]: 0.06 µg/mL (≈ 0.0902 µM)
MIC [11]: 0.06 µg/mL (≈ 0.0902 µM)
MIC [12]: 0.06 µg/mL (≈ 0.0902 µM)
MIC [13]: 0.5 µg/mL (≈ 0.752 µM)
MIC [14]: 0.06 µg/mL (≈ 0.0902 µM)
MIC [15]: 16 µg/mL (≈ 24.1 µM)
Human serum binding effect (ratio of MIC value determined with and without human serum added) [16]: 2

NCCSc1nccnc1SC1=C(C(=O)O)N2C(=O)C(NC(=O)/C(=N\O)c3cccc(N)n3)C2SC1 (stereo not shown) [Cmpd 7]
MIC [1]: 8 µg/mL (≈ 14.6 µM)
MIC [2]: > 32 µg/mL
MIC [3]: 4 µg/mL (≈ 7.29 µM)
MIC [4]: 0.25 µg/mL (≈ 0.456 µM)
MIC [5]: 2 µg/mL (≈ 3.65 µM)
MIC [6]: 2 µg/mL (≈ 3.65 µM)
MIC [7]: 2 µg/mL (≈ 3.65 µM)
MIC [8]: 8 µg/mL (≈ 14.6 µM)
MIC [9]: 2 µg/mL (≈ 3.65 µM)
MIC [10]: 2 µg/mL (≈ 3.65 µM)
MIC [11]: 0.25 µg/mL (≈ 0.456 µM)
MIC [12]: 4 µg/mL (≈ 7.29 µM)
MIC [13]: 2 µg/mL (≈ 3.65 µM)
MIC [14]: 0.25 µg/mL (≈ 0.456 µM)
MIC [15]: > 32 µg/mL

NCCSc1cncc(SC2=C(C(=O)O)N3C(=O)C(NC(=O)/C(=N\O)c4cccc(N)n4)C3SC2)n1 (stereo not shown) [Cmpd 6]
MIC [1]: 8 µg/mL (≈ 14.6 µM)
MIC [2]: > 32 µg/mL
MIC [3]: 16 µg/mL (≈ 29.2 µM)
MIC [4]: 0.5 µg/mL (≈ 0.911 µM)
MIC [5]: 16 µg/mL (≈ 29.2 µM)
MIC [6]: 8 µg/mL (≈ 14.6 µM)
MIC [7]: 32 µg/mL (≈ 58.3 µM)
MIC [8]: 8 µg/mL (≈ 14.6 µM)
MIC [9]: 16 µg/mL (≈ 29.2 µM)
MIC [10]: 2 µg/mL (≈ 3.65 µM)
MIC [11]: 0.5 µg/mL (≈ 0.911 µM)
MIC [12]: 4 µg/mL (≈ 7.29 µM)
MIC [13]: 16 µg/mL (≈ 29.2 µM)
MIC [14]: 0.25 µg/mL (≈ 0.456 µM)
MIC [15]: > 32 µg/mL
Human serum binding effect (ratio of MIC value determined with and without human serum added) [16]: 128
